The subject of one assay is Tu2449. The experiment in a line: Thymosin combination therapy in Tu2449/B6C3F1 glioma mouse model, survival. The settings on record: TA1 200 μg/kg IP SID 28 days added to suboptimal Toca511 (E3) and standard BID 5-FC, FIG. 10. In kind it is in vivo. Here is the method: Experiments using Thymosin Alpha 1 were performed in conjunction with Toca 511 treatment in the Tu2449/B6C3F1 glioma mouse model (U. Pohle et al. Int J Oncol. 15:829-834 (1999); HM. Smilowitz et al. J. Neurosurg 106:652-659 2007). […] Thymosin Alpha 1 was obtained from Sigma Aldrich cat# T3641 and a stock solution made in sterile water at 400 μg/mL. TA1 (200 μg/kg, […]) was given IP starting on day 7 SID for 28 days.

For another assay, the system named is U-87 cells. The experiment in a line: yCD2 versus wild type yCD protein level in infected cells (FIG. 4). The following applies: infected U-87 cells. The format is cell-based, human.

No end group written: not given here.

Turning to “thymosin alpha 1 (Ac-SDAAVDTSSEITTKDLKEKKEVVEEAEN; listed as Homo sapiens) [Sigma Aldrich cat# T3641]”, the survival rate result in the assay with Tu2449 is “increased the survival rate to that of the optimal E5 dosing of Toca 511”.

B1: yCD2: human codon optimized yeast cytosine deaminase with substitutions A23L/V108I/I140L (protein, UniProt Q12178 1-158, looked up, variant A23L V108I I140L)
Cytosine deaminase: MVTGGMASKWDQKGMDIAYEEALLGYKEGGVPIGGCLINNKDGSVLGRGHNMRFQKGSATLHGEISTLENCGRLEGKVYKDTTLYTTLSPCDMCTGAIIMYGIPRCVIGENVNFKSKGEKYLQTRGHEVVVVDDERCKKLMKQFIDERPQDWFEDIGE
In the case of B1, the CD protein level entry in the assay on U-87 cells is “higher levels”.

These data come from US20130130986A1, “CANCER TREATMENT WITH RECOMBINANT VECTOR” (TOCAGEN INC., priority 2010, published 2013).
